The structures appear in SMILES notation.

T1 sequence (P17931 whole entry): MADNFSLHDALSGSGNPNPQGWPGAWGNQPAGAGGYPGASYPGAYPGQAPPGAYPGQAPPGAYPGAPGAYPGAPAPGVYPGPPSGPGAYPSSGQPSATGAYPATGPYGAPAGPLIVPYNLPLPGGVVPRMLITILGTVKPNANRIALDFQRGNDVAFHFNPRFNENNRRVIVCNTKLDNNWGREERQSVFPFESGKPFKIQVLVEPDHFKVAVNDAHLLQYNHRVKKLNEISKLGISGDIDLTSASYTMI

This assay addresses T1, hGalectin-3 (Homo sapiens, UniProt P17931).
T1 construct: made in house
Put plainly: Gal-3 ELISA assay (hGalectin-3 neutralization binding to asialofetuin). The conditions noted are these: biotin-tagged hGalectin-3 15 nM, ASF-coated plate; read-out: hGal3 IC50. For orientation: In an ELISA, binding on a coated surface is turned into a signal by an enzyme label.
The IC50 is the concentration that inhibits the measured activity by half. With `O=C([C@@H]1O[C@H](CO)[C@H](O)[C@H](n2cc(-c3cccc(F)c3)nn2)[C@H]1O)N1C[C@@H]2C[C@H]1CN2c1ccc(O)cc1` [Example 25, ((2R,3R,4S,5R,6R)-4-(4-(3-fluorophenyl)-1H-1,2,3-triazol-1-yl)-3,5-dihydroxy-6-(hydroxymethyl)tetrahydro-2H-pyran-2-yl)((1S,4S)-5-(4-hydroxyphenyl)-2,5-diazabicyclo[2.2.1]heptan-2-yl)methanone], the IC50 worked out at 900 nM.
In the case of `O=C([C@@H]1O[C@H](CO)[C@H](O)[C@H](n2cc(-c3cccc(F)c3)nn2)[C@H]1O)N1C[C@@H]2C[C@H]1CN2c1ccc2[nH]ccc2c1` [Example 26, ((1S,4S)-5-(1H-indol-5-yl)-2,5-diazabicyclo[2.2.1]heptan-2-yl)((2R,3R,4S,5R,6R)-4-(4-(3-fluorophenyl)-1H-1,2,3-triazol-1-yl)-3,5-dihydroxy-6-(hydroxymethyl)tetrahydro-2H-pyran-2-yl)methanone] it was 300 nM; in that of `COc1ccc(N2C[C@@H]3C[C@H]2CN3C(=O)C[C@@H]2O[C@H](CO)[C@H](O)[C@H](n3cc(-c4cccc(F)c4)nn3)[C@H]2O)cc1` [Example 27, 2-((2S,3R,4R,5R,6R)-4-(4-(3-fluorophenyl)-1H-1,2,3-triazol-1-yl)-3,5-dihydroxy-6-(hydroxymethyl)tetrahydro-2H-pyran-2-yl)-1-((1S,4S)-5-(4-methoxyphenyl)-2,5-diazabicyclo[2.2.1]heptan-2-yl)ethanone], 350 nM.
In the case of `O=C(C[C@@H]1O[C@H](CO)[C@H](O)[C@H](n2cc(-c3cccc(F)c3)nn2)[C@H]1O)N1C[C@@H]2C[C@H]1CN2c1ccc2c(c1)OCO2` [Example 28] it was 580 nM.
In the case of `COc1ccc(N2C[C@@H]3C[C@H]2CN3C[C@@H]2O[C@H](CO)[C@H](O)[C@H](n3cc(-c4cccc(F)c4)nn3)[C@H]2O)cc1` [Example 29, (2R,3R,4R,5R,6S)-4-(4-(3-fluorophenyl)-1H-1,2,3-triazol-1-yl)-2-(hydroxymethyl)-6-(((1S,4S)-5-(4-methoxyphenyl)-2,5-diazabicyclo[2.2.1]heptan-2-yl)methyl)tetrahydro-2H-pyran-3,5-diol] it was 250 nM.
Regarding `O=C(Nc1ccc(O)cc1)N1C[C@@H]2C[C@H]1CN2C(=O)[C@@H]1O[C@H](CO)[C@H](O)[C@H](n2cc(-c3cccc(F)c3)nn2)[C@H]1O` [Example 30, (1S, 4S)-5-((2R, 3R, 4S, 5R, 6R)-4-(4-(3-fluorophenyl)-1H-1,2,3-triazol-1-yl)-3,5-dihydroxy-6-(hydroxymethyl)tetrahydro-2H-pyran-2-carbonyl)-N-(4-hydroxyphenyl)-2,5-diazabicyclo[2.2.1]heptane-2-carboxamide], the concentration for half-maximal inhibition (IC50) was determined as 500 nM.
In the case of `O=C([C@@H]1O[C@H](CO)[C@H](O)[C@H](n2cc(-c3cccc(F)c3)nn2)[C@H]1O)N1C[C@H]2C[C@@H]1CN2c1ccc2c(c1)OCO2` [Example 32] it was 180 nM; in that of `O=C([C@@H]1O[C@H](CO)[C@H](O)[C@H](n2cc(-c3cccc(F)c3)nn2)[C@H]1O)N1CCCN(c2ccc(O)cc2)CC1` [Example 33, ((2R, 3R, 4S, 5R, 6R)-4-(4-(3-fluorophenyl)-1H-1,2,3-triazol-1-yl)-3,5-dihydroxy-6-(hydroxymethyl)tetrahydro-2H-pyran-2-yl)(4-(4-hydroxyphenyl)-1,4-diazepan-1-yl)methanone], 480 nM; in that of `Cc1ccc(N2C[C@H]3CN(C(=O)[C@@H]4O[C@H](CO)[C@H](O)[C@H](n5cc(-c6cccc(F)c6)nn5)[C@H]4O)C[C@H]3C2)cc1` [Example 38, ((2R,3R,4S,5R,6R)-4-(4-(3-fluorophenyl)-1H-1,2,3-triazol-1-yl)-3,5-dihydroxy-6-(hydroxymethyl)tetrahydro-2H-pyran-2-yl)((3aR,6aS)-5-(p-tolyl)hexahydropyrrolo[3,4-c]pyrrol-2(1H)-yl)methanone], 400 nM.
Then `CS(=O)(=O)Nc1ccc(N2C[C@@H]3C[C@H]2CN3C(=O)[C@@H]2O[C@H](CO)[C@H](O)[C@H](n3cc(-c4cccc(F)c4)nn3)[C@H]2O)nc1` [Example 41, N-(6-((1S,4S)-5-((2R,3R,4S,5R,6R)-4-(4-(3-fluorophenyl)-1H-1,2,3-triazol-1-yl)-3,5-dihydroxy-6-(hydroxymethyl)tetrahydro-2H-pyran-2-carbonyl)-2,5-diazabicyclo[2.2.1]heptan-2-yl)pyridin-3-yl)methanesulfonamide], with 720 nM; and `CS(=O)(=O)Nc1ccc(N2C[C@@H]3C[C@H]2CN3C(=O)[C@@H]2O[C@H](CO)[C@H](O)[C@H](n3cc(-c4cccc(F)c4)nn3)[C@H]2O)cn1` [Example 42], with 420 nM.

The values above are taken from patent US12286424B2, “Small molecule inhibitors of galectin-3” (BRISTOL-MYERS SQUIBB COMPANY, priority 2020, dated 2025).
